Reference: US10765680B2, “Combination of a MCL-1 inhibitor and a taxane compound, uses and pharmaceutical compositions thereof” (priority 2017, dated 2020)

Assays:
[1] = test system: BT-474 breast cancer cell line; experiment: 72 hours CellTiter-Glo proliferation assay, BT-474; format: cell-based; conditions: single agent, read-out: Abs IC50
Method: (§1) Compounds were dissolved in 100% DMSO (Sigma, Catalog # D2438-50 ML) at a stock concentration of 10 mM and stored at −20° C. until use. Compounds were arrayed in 2 ml deep 96-well plates (Greiner bio-one, catalog number 780271) serially diluted 3-fold. Compound 1 was used over a concentration range of 0.0-10.0 μM. Paclitaxel was used over a concentration range of 0.0-1.0 μM in breast cancer cells and 0.0-2.0 μM range in lung cancer cells.
(§2) All cell lines were purchased from the American Type Culture Collection and cultured according to vendor recommendations. […] All cell lines were determined to be free of mycoplasma contamination by a PCR detection assay performed at Idexx Radil (Columbia, Mo., USA) and authenticated by SNP analysis. […] Cells were expanded to T-75 flasks and assessed for viability using a Beckman-Coulter ViCell counter prior to plating. […]
(§3) Cell proliferation was measured in 72 hours CellTiter-Glo™ (CTG) assays and all results shown are the result of at least triplicate measurements. […] After 72 hours of compound treatment the effects of compounds on cell proliferation was determined using the CellTiter-Glo™ Luminescent Cell Viability Assay (Promega, Catalog # G7573). This is a homogeneous method to determine the number of viable cells in culture based on quantitation of the ATP present, which signals the presence of metabolically active cells. […]

[2] = test system: HCC1143 breast cancer cell line; experiment: 72 hours CellTiter-Glo proliferation assay, HCC1143; format: cell-based; conditions: single agent, read-out: Abs IC50
Method: as §1, §2, §3

[3] = test system: HCC1500 breast cancer cell line; experiment: 72 hours CellTiter-Glo proliferation assay, HCC1500; format: cell-based; conditions: single agent, read-out: Abs IC50
Method: as §1, §2, §3

[4] = test system: HCC70 breast cancer cell line; experiment: 72 hours CellTiter-Glo proliferation assay, HCC70; format: cell-based; conditions: single agent, read-out: Abs IC50
Method: as §1, §2, §3

[5] = test system: MDA-MB-453 breast cancer cell line; experiment: 72 hours CellTiter-Glo proliferation assay, MDA-MB-453; format: cell-based; conditions: single agent, read-out: Abs IC50
Method: as §1, §2, §3

[6] = test system: SK-BR-3 breast cancer cell line; experiment: 72 hours CellTiter-Glo proliferation assay, SK-BR-3; format: cell-based; conditions: single agent, read-out: Abs IC50
Method: as §1, §2, §3

[7] = test system: NCI-H23 lung cancer cell line; experiment: 72 hours CellTiter-Glo proliferation assay, NCI-H23; format: cell-based; conditions: single agent, read-out: Abs IC50
Method: as §1, §2, §3

[8] = MDA-MB-231 breast xenograft model, tolerability and surviving animals; format: in vivo, female nude rats; conditions: Compound 1 50 mg/kg dosed 0.5 h or 16 h after vehicle for paclitaxel
Method: This study evaluated the antitumor activity and tolerability of Compound 1 in combination with paclitaxel in the triple negative breast cancer (TNBC) model, MDA-MB-231, in female NTac:NIH-Whn nude rats (Taconic).
Compound 1 (free base) and paclitaxel (Sandoz) was used in these studies. Paclitaxel was diluted as per manufacturer's instruction with sterile 5% (w/v) glucose solution to 1.5 mg/ml to administer 7.5 mg/kg in 5 ml/kg dose volume [final ethanol and Cremophor EL concentration was 10 and 15%, respectively in 5% (w/v) glucose solution]. Compound 1 was formulated in a liposomal formulation (Novartis) at 5 mg/ml to administer 50 mg/kg dose in 10 ml/kg dose volume.
MDA-MB-231, a triple negative breast cancer cell line, was obtained from ATCC cell bank. […] Tumor growth was monitored regularly post cell inoculation and animals were randomised into treatment groups (n=7-8) with a mean tumor volume of about 400 mm^3. […]
The vehicle for paclitaxel or paclitaxel was administered once a week (QW) as a slow bolus dose via a caudal vein 0.5 h or 16 h before the vehicle for Compound 1 or Compound 1 itself in liposomal formulation and these were administered by iv infusion over 15 minutes in a caudal vein. […] Tumor volumes were measured using calipers 2-3 times per week. Tumor size, in mm^3, was calculated from: (L×W^2×π/6), where W=width and L=length of the tumor. […]

[9] = test system: TNBC PDX model OD-BRE-00589; experiment: TNBC PDX model OD-BRE-00589, antitumor activity; format: in vivo, female SCID mice; conditions: Compound 1 70 mg/kg iv once, liposomal formulation
Method: Docetaxel was formulated in 5% ethanol, 5% PS80 and 90% Glucose at 0.67 mg/ml to administer 10 mg/kg. […] OD-BRE-00589 is a triple negative breast cancer PDX, obtained from the IMODI consortium. […] It was grafted on SCID mice as fragments of 27 mm^3 volume. […] The administrations were performed once in the caudal vein.

COc1ccccc1-c1nccc(COc2ccccc2C[C@@H](Oc2ncnc3sc(-c4ccc(F)cc4)c(-c4ccc(OCCN5CCN(C)CC5)c(Cl)c4C)c23)C(=O)O)n1 [Compound 1, (2R)-2-{[(5Sa)-5-{3-chloro-2-methyl-4-[2-(4-methylpiperazin-1-yl)ethoxy]phenyl}-6-(4-fluorophenyl)thieno[2,3-d]pyrimidin-4-yl]oxy}-3-(2-{[2-(2-methoxyphenyl)pyrimidin-4-yl]methoxy}phenyl)propanoic acid]
IC50 [1]: 1.26 µM
IC50 [2]: > 10 µM
IC50 [3]: 0.258 µM
IC50 [4]: 0.704 µM
IC50 [5]: > 10 µM
IC50 [6]: 0.301 µM
IC50 [7]: 0.16 µM
tolerability [8]: well tolerated
inhibition of tumor growth, single agent [9]: insufficient in inhibiting tumor growth
